Measured values published in patent US5134137A, “Cephalosporin antibiotics” (The Upjohn Company, priority 1990, dated 1992).
Values after ≈ are worked out from the molar mass of the structure shown. Where two headings read alike, the source gives them in different places.

Tests used:
Format in all cases: cell-based
Salmonella typhimurium = test: MIC, agar dilution, Salmonella typhimurium; conditions: Salmonella enterica, read-out: MIC
Protocol: (§1) Stock solution of each test antibiotic compound were prepared to have a concentration of 2 mg. of the test compound per milliliter in sterile water of 0.1M ammonium acetate solution. The amount of each compound used was adjusted for base compound activity as calculated from the purity data for the selected batch of compound.
(§2) The dilution procedure described by Washington and Sutter [Manual of Clinical Microbiology, 3rd, Edit. (Lennett, E. H. et al, Eds.), pp. 453-458 (1980), American Society for Microbiology, Washington, D.C.] was modified so that serial concentrations of 128 to 0.0625 microgram/ml. in sterile water was obtained. Then 1.5 ml. aliquots of these test antibiotic dilution mixtures are added to 13.5 molten (50° C.) Mueller-Hinton agar. Each resulting mixture is poured into 15×100 mm, sterile Petri plates and allowed to dry at room temperature overnight.
(§3) Test bacterial cultures are maintained at -70° C. on glass beads. [See R. J. Yancey, Jr. et al, Amer. Jr. of Vet. Research, 48, No. 7, pp. 1050-1053, (1987)]. At least one bacteria-laden bead per culture is dropped into one ml. of brain heart infusion (BHI) broth for overnight culture at 37° C. in 5% V/V carbon dioxide in air atmosphere.
(§4) On the data of assay, 2 to 8 drops of the bacterial broth cultures are transferred to fresh BHI broth (1 ml.) and the mixture is incubated for 4 to 6 hours at 37° C. in a 5% V/V carbon dioxide in air atmosphere. The resulting cultures are then diluted to match a 0.5 MacFarland standard and further diluted 1:20 V/V with sterile saline solution.
(§5) A 0.001 ml. drop of the resulting mixture, containing approximately 10^3 to 10^4 colony forming units (CFU) of each test bacteria organism, is dispensed onto the surface of the test antibiotic compound test plates with a Steer's type replicator. The resulting innoculated plates are incubated 16 to 18 hours at 37° C. with a carbon dioxide atmosphere.
as §1, with “Stock solutions” for “Stock solution”
as §2, with “mm.” for “mm,”
as §2, with “for Microbiology.” for “for Microbiology,”, “15×100 mm.” for “15×100 mm,”
as §3, with “culture” for “cultures”
(§6) On the day of assay, 2 to 8 drops of the bacterial broth cultures are transferred to fresh BHI broth (1 ml.) and the mixture is incubated for 4 to 6 hours at 37° C. in a 5% V/V carbon dioxide in air atmosphere. […]

Salmonella choleraesuis = test: MIC, agar dilution, Salmonella choleraesuis; conditions: Salmonella enterica, read-out: MIC
Protocol: as §1, §2, §3, §4, §5
as §1, with “Stock solutions” for “Stock solution”
as §2, with “mm.” for “mm,”
as §2, with “for Microbiology.” for “for Microbiology,”, “15×100 mm.” for “15×100 mm,”
as §3, with “culture” for “cultures”
as §6

[1] = test system: Bordetella bronchiseptica; test: MIC, agar dilution, Bordetella bronchiseptica; conditions: Bordetella bronchiseptica; strain UC6313; read-out: MIC
Protocol: as §1, §2, §3, §4, §5
as §1, with “Stock solutions” for “Stock solution”
as §2, with “mm.” for “mm,”
as §2, with “for Microbiology.” for “for Microbiology,”, “15×100 mm.” for “15×100 mm,”
as §3, with “culture” for “cultures”
as §6

Pasteurella hemolytica = test: MIC (minimum inhibitory concentration), agar dilution, Pasteurella hemolytica; conditions: Pasteurella, read-out: MIC
Protocol: as §1, §2, §3, §4, §5
as §1, with “Stock solutions” for “Stock solution”
as §2, with “mm.” for “mm,”
as §2, with “for Microbiology.” for “for Microbiology,”, “15×100 mm.” for “15×100 mm,”
as §3, with “culture” for “cultures”
as §6

Pseudomonas aeruginosa = test: MIC, agar dilution, Pseudomonas aeruginosa; conditions: Pseudomonas aeruginosa, read-out: MIC
Protocol: as §1, §2, §3, §4, §5
as §1, with “Stock solutions” for “Stock solution”
as §2, with “mm.” for “mm,”
as §2, with “for Microbiology.” for “for Microbiology,”, “15×100 mm.” for “15×100 mm,”
as §3, with “culture” for “cultures”
as §6

Enterococcus faecium = test: MIC, agar dilution, Enterococcus faecium; conditions: Enterococcus faecium; strain UC241; read-out: MIC
Protocol: as §1, with “Stock solutions” for “Stock solution”
as §2, §3, §4, §5, §1
as §2, with “mm.” for “mm,”
as §2, with “for Microbiology.” for “for Microbiology,”, “15×100 mm.” for “15×100 mm,”
as §3, with “culture” for “cultures”
as §6

Enterococcus faecalis = test: MIC, agar dilution, Enterococcus faecalis; conditions: Enterococcus faecalis; strain UC694; read-out: MIC
Protocol: as §1, with “Stock solutions” for “Stock solution”
as §2, §3, §4, §5, §1
as §2, with “mm.” for “mm,”
as §2, with “for Microbiology.” for “for Microbiology,”, “15×100 mm.” for “15×100 mm,”
as §3, with “culture” for “cultures”
as §6

Micrococcus luteus = test: MIC, agar dilution, Micrococcus luteus; conditions: Micrococcus luteus; strain UC130; read-out: MIC
Protocol: as §1, §2, §3, §4, §5
as §1, with “Stock solutions” for “Stock solution”
as §2, with “mm.” for “mm,”
as §2, with “for Microbiology.” for “for Microbiology,”, “15×100 mm.” for “15×100 mm,”
as §3, with “culture” for “cultures”
as §6

[2] = test system: Streptococcus dysgalactiae; test: MIC, agar dilution, Streptococcus dysgalactiae; conditions: Streptococcus dysgalactiae; strain UC251; read-out: MIC
Protocol: as §1, §2, §3, §4, §5
as §1, with “Stock solutions” for “Stock solution”
as §2, with “mm.” for “mm,”
as §2, with “for Microbiology.” for “for Microbiology,”, “15×100 mm.” for “15×100 mm,”
as §3, with “culture” for “cultures”
as §6

Staphylococcus aureus = test: MIC, agar dilution, Staphylococcus aureus; conditions: Staphylococcus aureus, read-out: MIC
Protocol: as §1, §2, §3, §4, §5
as §1, with “Stock solutions” for “Stock solution”
as §2, with “mm.” for “mm,”
as §2, with “for Microbiology.” for “for Microbiology,”, “15×100 mm.” for “15×100 mm,”
as §3, with “culture” for “cultures”
as §6

Streptococcus agalactiae = test: MIC, agar dilution, Streptococcus agalactiae; conditions: Streptococcus agalactiae, read-out: MIC
Protocol: as §1, §2, §3, §4, §5
as §1, with “Stock solutions” for “Stock solution”
as §2, with “mm.” for “mm,”
as §2, with “for Microbiology.” for “for Microbiology,”, “15×100 mm.” for “15×100 mm,”
as §3, with “culture” for “cultures”
as §6

Pasteurella multocida = test: MIC, agar dilution, Pasteurella multocida; conditions: Pasteurella multocida; strain UC9581; read-out: MIC
Protocol: as §1, §2, §3, §4, §5
as §1, with “Stock solutions” for “Stock solution”
as §2, with “mm.” for “mm,”
as §2, with “for Microbiology.” for “for Microbiology,”, “15×100 mm.” for “15×100 mm,”
as §3, with “culture” for “cultures”
as §6

Corynebacterium pyogenes = test: MIC, agar dilution, Corynebacterium pyogenes; conditions: strain 213-2; read-out: MIC
Protocol: as §1, §2, §3, §4, §5
as §1, with “Stock solutions” for “Stock solution”
as §2, with “mm.” for “mm,”
as §2, with “for Microbiology.” for “for Microbiology,”, “15×100 mm.” for “15×100 mm,”
as §3, with “culture” for “cultures”
as §6

Streptococcus uberis = test: MIC, agar dilution, Streptococcus uberis; conditions: Streptococcus uberis, read-out: MIC
Protocol: as §1, §2, §3, §4, §5
as §1, with “Stock solutions” for “Stock solution”
as §2, with “mm.” for “mm,”
as §2, with “for Microbiology.” for “for Microbiology,”, “15×100 mm.” for “15×100 mm,”
as §3, with “culture” for “cultures”
as §6

Escherichia coli = test: MIC, agar dilution, Escherichia coli; conditions: Escherichia coli, read-out: MIC
Protocol: as §1, §2, §3, §4, §5
as §1, with “Stock solutions” for “Stock solution”
as §2, with “mm.” for “mm,”
as §2, with “for Microbiology.” for “for Microbiology,”, “15×100 mm.” for “15×100 mm,”
as §3, with “culture” for “cultures”
as §6

Streptococcus suis = test: MIC, agar dilution, Streptococcus suis; conditions: Streptococcus suis; strain 650-2; read-out: MIC
Protocol: as §1, §2, §3, §4, §5
as §1, with “Stock solutions” for “Stock solution”
as §2, with “mm.” for “mm,”
as §2, with “for Microbiology.” for “for Microbiology,”, “15×100 mm.” for “15×100 mm,”
as §3, with “culture” for “cultures”
as §6

Streptococcus bovis = test: MIC, agar dilution, Streptococcus bovis; conditions: Streptococcus equinus; strain UC6281; read-out: MIC
Protocol: as §1, §2, §3, §4, §5
as §1, with “Stock solutions” for “Stock solution”
as §2, with “mm.” for “mm,”
as §2, with “for Microbiology.” for “for Microbiology,”, “15×100 mm.” for “15×100 mm,”
as §3, with “culture” for “cultures”
as §6

[3] = TYPHIMURIUM / UC6162, strain UC6162
[4] = TYPHIMURIUM / UC6164, strain UC6164
[5] = CHOLERAESUIS / UC6073, strain UC6073
[6] = CHOLERAESUIS / UC6077, strain UC6077

MIC (Salmonella typhimurium; [3])	MIC (Salmonella typhimurium; [4])	MIC [1]	MIC (Enterococcus faecium)	MIC (Enterococcus faecalis)	MIC (Micrococcus luteus)	MIC [2]	MIC (Staphylococcus aureus; strain UC6093)	MIC (Staphylococcus aureus; strain UC6097)	MIC (Staphylococcus aureus; strain UC9203)	MIC (Streptococcus agalactiae; strain UC3947)	MIC (Streptococcus agalactiae; strain UC6892)	MIC (Pasteurella multocida)	MIC (Corynebacterium pyogenes)	MIC (Streptococcus uberis; strain UC3946)	Compound	MIC (Salmonella choleraesuis; [5])	MIC (Salmonella choleraesuis; [6])	MIC (Pasteurella hemolytica; strain UC6531)	MIC (Pasteurella hemolytica; strain UC6532)	MIC (Pasteurella hemolytica; strain UC9582)	also measured
2 µg/mL (≈ 2.33 µM)	2 µg/mL (≈ 2.33 µM)	> 32 µg/mL	> 32 µg/mL	> 32 µg/mL	≤ 0.06 µg/mL	≤ 0.06 µg/mL	16 µg/mL (≈ 18.7 µM)	16 µg/mL (≈ 18.7 µM)	16 µg/mL (≈ 18.7 µM)	≤ 0.06 µg/mL	≤ 0.06 µg/mL	≤ 0.06 µg/mL	0.25 µg/mL (≈ 0.292 µM)	0.25 µg/mL (≈ 0.292 µM)	CO/N=C(\C(=O)N[C@@H]1C(=O)N2C(C(=O)O)=C(CSSCC3=C(C(=O)O)N4C(=O)[C@@H](NC(=O)/C(=N\OC)c5csc(N)n5)[C@H]4SC3)CS[C@H]12)c1csc(N)n1 [Example 5, 1,1-bis-(7β)-(2-(2-amino-1,3-thiazol-4-yl)-(Z)-2-(methoxyimino)acetamido-4-carboxy-3-cephem-3-yl)dimethyldisulfide]	4 µg/mL (≈ 4.67 µM)	8 µg/mL (≈ 9.33 µM)	≤ 0.06 µg/mL	≤ 0.06 µg/mL	≤ 0.06 µg/mL	MIC (Pseudomonas aeruginosa; strain ATCC27853): > 32 µg/mL; MIC (Streptococcus uberis; strain UC6159): 16 µg/mL (≈ 18.7 µM); MIC (Escherichia coli; strain UC3784): 2 µg/mL (≈ 2.33 µM); MIC (Escherichia coli; strain UC6720): 2 µg/mL (≈ 2.33 µM); MIC (Escherichia coli; strain UC9670): 2 µg/mL (≈ 2.33 µM); MIC (Streptococcus suis): ≤ 0.06 µg/mL; MIC (Streptococcus bovis): ≤ 0.06 µg/mL
1 µg/mL (≈ 2.1 µM)	1 µg/mL (≈ 2.1 µM)	> 32 µg/mL	> 32 µg/mL	> 32 µg/mL	0.13 µg/mL (≈ 0.273 µM)	≤ 0.06 µg/mL	2 µg/mL (≈ 4.21 µM)	2 µg/mL (≈ 4.21 µM)	2 µg/mL (≈ 4.21 µM)	≤ 0.06 µg/mL	≤ 0.06 µg/mL	≤ 0.06 µg/mL	0.5 µg/mL (≈ 1.05 µM)	0.13 µg/mL (≈ 0.273 µM)	CO/N=C(\C(=O)N[C@@H]1C(=O)N2C(C(=O)O)=C(CSSC)CS[C@H]12)c1csc(N)n1 [Example 9, 7-[2-(2-amino-1,3-thiazo-4-yl]-2-(methoxyimino)acetamimdo]-3-methyldithiomethyl-3-cephem-4-carboxylic acid]	1 µg/mL (≈ 2.1 µM)	4 µg/mL (≈ 8.41 µM)	≤ 0.06 µg/mL	≤ 0.06 µg/mL	≤ 0.06 µg/mL	MIC (Pseudomonas aeruginosa; ATCC27853, strain ATCC 27853): > 32 µg/mL; MIC (Streptococcus uberis; strain UC6159): 16 µg/mL (≈ 33.6 µM); MIC (Escherichia coli; strain UC3784): 1 µg/mL (≈ 2.1 µM); MIC (Escherichia coli; strain UC6720): 1 µg/mL (≈ 2.1 µM); MIC (Escherichia coli; strain UC9670): 1 µg/mL (≈ 2.1 µM); MIC (Streptococcus suis): ≤ 0.06 µg/mL; MIC (Streptococcus bovis): ≤ 0.06 µg/mL
